Experimental data published in ChEMBL document CHEMBL1201862, “PubChem BioAssay data set” (2004).
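Following 48 hours of exposure in 96-well plates, responses at five concentrations were used to interpolate endpoints linearly. GI50: concentration for 50% inhibition of growth.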 The source made the active and inactive calls. No stated cut-off is given here; in the data, active = GI50 up to about 1.1 µM and inactive = higher.

What was measured:
Test in all cases: NCI-60 cell line screen, 48 h
A549 = test system: A549
RPMI-8226 = test system: RPMI-8226
EKVX = test system: EKVX
786-0 = test system: 786-0
SK-MEL-5 = test system: SK-MEL-5
COLO 205 = test system: COLO 205
CAKI-1 = test system: CAKI-1
PC-3 = test system: PC-3
KM12 = test system: KM12
NCI/ADR-RES = test system: NCI/ADR-RES
NCI-H522 = test system: NCI-H522
SK-OV-3 = test system: SK-OV-3
ACHN = test system: ACHN
NCI-H460 = test system: NCI-H460
MDA-N = test system: MDA-N
T47D = test system: T47D
SF-268 = test system: SF-268
RXF 393 = test system: RXF 393
UO-31 = test system: UO-31
HCC 2998 = test system: HCC 2998

| Structure (SMILES) | GI50 (A549) | GI50 (RPMI-8226) | GI50 (EKVX) | GI50 (786-0) | GI50 (SK-MEL-5) | GI50 (COLO 205) | GI50 (CAKI-1) | GI50 (PC-3) | GI50 (KM12) | GI50 (NCI/ADR-RES) | GI50 (NCI-H522) | GI50 (SK-OV-3) | GI50 (ACHN) | GI50 (NCI-H460) | GI50 (MDA-N) | GI50 (T47D) | GI50 (SF-268) | GI50 (RXF 393) | GI50 (UO-31) | GI50 (HCC 2998) |
| --- | --- | --- | --- | --- | --- | --- | --- | --- | --- | --- | --- | --- | --- | --- | --- | --- | --- | --- | --- | --- |
| O=[N+]([O-])c1ccc2c3ccccc3[s+]([O-])c2c1 (stereo not drawn) | > 100 µM (inactive) | > 100 µM (inactive) | 35.2 µM (inactive) | > 100 µM (inactive) | > 100 µM (inactive) | 63.7 µM (inactive) | > 100 µM (inactive) | > 100 µM (inactive) | > 100 µM (inactive) | > 100 µM (inactive) | > 100 µM (inactive) | > 100 µM (inactive) | > 100 µM (inactive) | > 100 µM (inactive) | > 100 µM (inactive) | > 100 µM (inactive) | > 100 µM (inactive) | – | – | – |
| CCOP(=O)(OCC)/C(C#N)=C/c1cnc(-c2ccccc2)[nH]1 | > 100 µM (inactive) | > 100 µM (inactive) | > 100 µM (inactive) | > 100 µM (inactive) | 82.8 µM (inactive) | > 100 µM (inactive) | > 100 µM (inactive) | > 100 µM (inactive) | > 100 µM (inactive) | > 100 µM (inactive) | > 100 µM (inactive) | > 100 µM (inactive) | > 100 µM (inactive) | > 100 µM (inactive) | > 100 µM (inactive) | – | > 100 µM (inactive) | > 100 µM (inactive) | > 100 µM (inactive) | > 100 µM (inactive) |
| CCN(CC)c1ccc2cc(C(=O)Nc3ccccn3)c(=N)oc2c1 | > 100 µM (inactive) | > 100 µM (inactive) | > 100 µM (inactive) | 35.3 µM (inactive) | > 100 µM (inactive) | > 100 µM (inactive) | > 100 µM (inactive) | – | > 100 µM (inactive) | 85.3 µM (inactive) | – | 52 µM (inactive) | 26.9 µM (inactive) | > 100 µM (inactive) | > 100 µM (inactive) | 99.8 µM (inactive) | 60.8 µM (inactive) | 47.9 µM (inactive) | – | > 100 µM (inactive) |
| COc1ccc2oc(C(=O)N3CC(CCl)c4ccc([N+](=O)[O-])cc43)cc2c1 (stereo not drawn) | – | > 100 µM (inactive) | 15.8 µM (inactive) | 16.2 µM (inactive) | > 100 µM (inactive) | 74.6 µM (inactive) | 15.4 µM (inactive) | 20.7 µM (inactive) | 0.381 µM (active) | 17.9 µM (inactive) | – | 13.2 µM (inactive) | 40.6 µM (inactive) | 31.3 µM (inactive) | – | 53.8 µM (inactive) | 13.3 µM (inactive) | 13.4 µM (inactive) | 4.45 µM (inactive) | > 100 µM (inactive) |
| Cn1c2c(cc(-c3ccccc3)c1=O)COc1ccccc1-2 | 33.3 µM (inactive) | 20.2 µM (inactive) | 9.04 µM (inactive) | 39.3 µM (inactive) | 17.5 µM (inactive) | 29 µM (inactive) | 37.5 µM (inactive) | – | 13 µM (inactive) | – | 17.9 µM (inactive) | 37.8 µM (inactive) | 24 µM (inactive) | 20.3 µM (inactive) | – | – | 28.6 µM (inactive) | 36.1 µM (inactive) | 27.5 µM (inactive) | 24.8 µM (inactive) |
| CC(C)(C)C1=C(Br)C(OC(=O)C(F)(F)F)(C(C)(C)C)OP1(=O)c1ccccc1 (stereo not drawn) | 25.6 µM (inactive) | – | 23.8 µM (inactive) | 40.2 µM (inactive) | 65.3 µM (inactive) | 18.5 µM (inactive) | 0.0643 µM (active) | 18.1 µM (inactive) | 63 µM (inactive) | 35.1 µM (inactive) | 42.2 µM (inactive) | 39.1 µM (inactive) | 32.7 µM (inactive) | 35.5 µM (inactive) | 60.8 µM (inactive) | 30 µM (inactive) | 61.4 µM (inactive) | – | 52.5 µM (inactive) | 38.6 µM (inactive) |
| COc1cccc(C23CCN(C)C(CC(O)C2)C3)c1OC (stereo not drawn) | > 100 µM (inactive) | > 100 µM (inactive) | > 100 µM (inactive) | > 100 µM (inactive) | > 100 µM (inactive) | > 100 µM (inactive) | > 100 µM (inactive) | > 100 µM (inactive) | > 100 µM (inactive) | > 100 µM (inactive) | > 100 µM (inactive) | > 100 µM (inactive) | > 100 µM (inactive) | – | > 100 µM (inactive) | > 100 µM (inactive) | > 100 µM (inactive) | – | > 100 µM (inactive) | – |
| CN(Cc1cnc2c(n1)C(N)=NN(N)N2)c1ccc(C(=O)NC(CCP(=O)(O)O)C(=O)O)cc1 (stereo not drawn) | 2.43 µM (inactive) | – | > 43.3 µM (inactive) | 1.86 µM (inactive) | 5.35 µM (inactive) | > 31.5 µM (inactive) | > 52.8 µM (inactive) | – | 5.14 µM (inactive) | 8.02 µM (inactive) | 26.4 µM (inactive) | > 100 µM (inactive) | 2.17 µM (inactive) | 1.87 µM (inactive) | – | > 100 µM (inactive) | 1.21 µM (inactive) | 6.22 µM (inactive) | > 19.9 µM (inactive) | 15.3 µM (inactive) |
